Assay results reported in ChEMBL document CHEMBL1155148 (Antimicrob Agents Chemother, 2007).

Tests used:
[1] = Plasma concentration in human with MDR1 3435 CC genotype at 400 mg, po once daily after 14 days coadministered with rifampin at 600 […], po once daily; assay type: ADME, organism-based; design: route oral
[2] = AUC (0 to 24 hrs) in human with MDR1 3435 CC genotype at 400 mg, po once daily after 4 days; assay type: ADME, organism-based; design: dose 400 mg, time < 24 hr, route oral; conditions: plasma
[3] = Tmax in human with MDR1 3435 CC or CT genotype at 400 mg, po once daily after 4 days; assay type: ADME, organism-based; conditions: in vivo
[4] = AUC (0 to 24 hrs) in human at 400 mg, po once daily after 14 days coadministered with rifampin at 600 mg, po once daily; assay type: ADME, organism-based; design: dose 400 mg, time < 24 hr, route oral; conditions: plasma
[5] = AUC (0 to 24 hrs) in human with MDR1 3435 CT or TT genotype at 400 mg, po once daily after 14 days coadministered with rifampin at 600 mg, po once daily; conditions: plasma
[6] = Tmax in human with MDR1 3435 CC genotype at 400 mg, po once daily after 4 days; assay type: ADME, organism-based; conditions: in vivo
[7] = Tmax in human with MDR1 3435 CC genotype at 400 mg, po once daily after 14 days coadministered with rifampin at 600 […], po once daily; assay type: ADME, organism-based; design: route oral; conditions: in vivo
[8] = Plasma concentration in human with MDR1 3435 CC or CT genotype at 400 mg, po once daily after 4 days; assay type: ADME, organism-based
[9] = Plasma concentration in human with MDR1 3435 CC genotype at 400 mg, po once daily after 4 days; assay type: ADME, organism-based
[10] = AUC (0 to 24 hrs) in human with MDR1 3435 CC genotype at 400 mg, po once daily after 14 days coadministered with rifampin at 600 […], po once daily; assay type: ADME, organism-based; design: time < 24 hr, route oral; conditions: plasma
[11] = Tmax in human at 400 mg, po once daily after 14 days coadministered with rifampin at 600 mg, po once daily; assay type: ADME, organism-based; conditions: in vivo
[12] = Tmax in human with MDR1 3435 CC or CT genotype at 400 mg, po once daily after 14 days coadministered with rifampin at 600 […], po once daily; assay type: ADME, organism-based; design: route oral; conditions: in vivo
[13] = Plasma concentration in human with MDR1 3435 CC or CT genotype at 400 mg, po once daily after 14 days coadministered with rifampin at 600 […], po once daily; assay type: ADME, organism-based; design: route oral
[14] = Plasma concentration in human at 400 mg, po once daily after 14 days coadministered with rifampin at 600 mg, po once daily; assay type: ADME, organism-based
[15] = AUC (0 to 24 hrs) in human at 400 mg, po once daily after 4 days; assay type: ADME, organism-based; design: dose 400 mg, time < 24 hr, route oral; conditions: plasma
[16] = Tmax in human at 400 mg, po once daily after 4 days; assay type: ADME, organism-based; conditions: in vivo
[17] = Plasma concentration in human at 400 mg, po once daily after 4 days; assay type: ADME, organism-based
[18] = AUC (0 to 24 hrs) in human with MDR1 3435 CC or CT genotype at 400 mg, po once daily after 4 days; assay type: ADME, organism-based; design: dose 400 mg, time < 24 hr, route oral; conditions: plasma
[19] = AUC (0 to 24 hrs) in human at 600 mg, po once daily after 14 days coadministered with moxifloxacin at 400 mg, po once daily; assay type: ADME, organism-based; design: dose 600 mg, time < 24 hr, route oral; conditions: plasma
[20] = Plasma concentration in human at 600 mg, po once daily after 14 days coadministered with moxifloxacin at 400 mg, po once daily; assay type: ADME, organism-based

Row | Structure (SMILES) | concentration at 336 h [1] [ng/mL] | AUC at 24 h [2] [ng·h/mL] | Tmax [3] [h] | AUC at 24 h [4] [ng·h/mL] | AUC at 24 h [5] [ng·h/mL] | Tmax [6] [h] | Tmax [7] [h] | concentration at 96 h [8] [ng/mL] | concentration at 96 h [9] [ng/mL] | AUC at 24 h [10] [ng·h/mL] | Tmax [11] [h] | Tmax [12] [h] | concentration at 336 h [13] [ng/mL] | concentration at 336 h [14] [ng/mL] | AUC at 24 h [15] [ng·h/mL] | Tmax [16] [h] | concentration at 96 h [17] [ng/mL] | AUC at 24 h [18] [ng·h/mL] | AUC at 24 h [19] [ng·h/mL] | concentration at 336 h [20] [ng/mL]
1 | COc1c(N2C[C@@H]3CCCN[C@@H]3C2)c(F)cc2c(=O)c(C(=O)O)cn(C3CC3)c12 [MOXIFLOXACIN] | 2940 | 37200 | 1.91 | 29200 | 30300 | 1.47 | 1.98 | 3810 | 3530 | 25500 | 1.56 | 1.05 | 3830 | 3600 | 39400 | 1.97 | 3800 | 39700 | – | –
2 | CO[C@H]1/C=C/O[C@@]2(C)Oc3c(C)c(O)c4c(O)c(c(/C=N/N5CCN(C)CC5)c(O)c4c3C2=O)NC(=O)/C(C)=C\C=C\[C@H](C)[C@H](O)[C@@H](C)[C@@H](O)[C@@H](C)[C@H](OC(C)=O)[C@@H]1C [RIFAMPIN] | – | – | – | – | – | – | – | – | – | – | – | – | – | – | – | – | – | – | 44000 | 9900
